# Data reported in PMC11678245, “The Molecular Basis of the Intrinsic and Acquired Resistance to Azole Antifungals in Aspergillus fumigatus” (Journal of Fungi, 2024).
# Values joined by “and” are separate entries in the source; they are usually repeats but may differ in a detail not shown here. Equal entries are not always repeated. Where two headings read alike, the source gives them in different places.
# What was measured:
# [1] = system: S. cerevisiae strain BR (AfCyp51B-6×His, AfCprA2-6×His); experiment: MIC80 susceptibility, strain BR; assay type: cell-based; conditions: Saccharomyces cerevisiae; Table 2; strain BR; SD pH 6.8, 48 h, 30 °C; ± SD; read-out: MIC80
# Protocol: (§1) The susceptibilities of S. cerevisiae strains to antifungal drugs were determined as minimum growth inhibitory concentration (MIC) values in 200 μL SD pH 6.8 [24]. Serial 2-fold dilutions of 100 μL of azole or control drugs in SD pH 6.8 were prepared in a 96-well microtiter plate. A portion of a 2 mL SD pH 6.8 overnight culture of the test strain was inoculated into 3 mL fresh SD pH 6.8 and incubated for 4 to 6 h at 30 °C to generate logarithmic-phase cells. These cells were then diluted with fresh SD pH 6.8 to OD600nm = 0.01 (3 × 10^4 CFU), and 100 μL of this cell suspension was added to microtiter plate wells. Cell growth after 48 h incubation at 30 °C with shaking at 200 rpm was determined at 600 nm using a BioTek™ Synergy™ 2 multi-Mode microplate reader controlled using Gen5™ Data Analysis Software version 3.16.10 (BioTek Instruments, Winooski, VT, USA). MIC80 values (80% growth inhibition in the presence of the test drug compared with the untreated control) for each yeast construct were determined as technical triplicates repeated three times for three separate clones.
# [2] = biological target: T1, AfCYP51B-6×His (Aspergillus fumigatus, UniProt E9QY26); experiment: Type II binding of azole drugs (difference spectra); conditions: for λpeak (type II difference spectrum) / λtrough (type II difference spectrum) / ΔAmax (type II binding) / Kd: 1 μM enzyme; for ΔAmax (type II binding) / Kd: Hill equation; for Hill Number / Kd: type II binding
# T1 sequence (E9QY26 1-524): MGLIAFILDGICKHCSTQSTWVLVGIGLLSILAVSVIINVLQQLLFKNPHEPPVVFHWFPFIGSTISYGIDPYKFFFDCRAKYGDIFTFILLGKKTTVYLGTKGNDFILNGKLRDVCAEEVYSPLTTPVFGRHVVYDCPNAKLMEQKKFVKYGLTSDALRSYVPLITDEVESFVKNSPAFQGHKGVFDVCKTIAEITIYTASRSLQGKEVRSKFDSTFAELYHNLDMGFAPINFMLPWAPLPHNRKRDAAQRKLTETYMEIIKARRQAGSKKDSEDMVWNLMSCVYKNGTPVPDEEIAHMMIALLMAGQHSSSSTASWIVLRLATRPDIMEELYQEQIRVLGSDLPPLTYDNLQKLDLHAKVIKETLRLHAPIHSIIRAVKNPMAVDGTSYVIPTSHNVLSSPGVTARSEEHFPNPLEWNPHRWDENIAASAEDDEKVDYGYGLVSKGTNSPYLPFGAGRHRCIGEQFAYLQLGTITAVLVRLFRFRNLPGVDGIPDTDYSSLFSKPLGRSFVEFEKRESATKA
# [3] = system: S. cerevisiae strain ARE T289A (AfCyp51A-6×His T289A, AfCprA2, AfErg6-FLAG); experiment: MIC80 susceptibility, strain T289A; assay type: cell-based, Saccharomyces cerevisiae; conditions: for MIC80: ± SD
# Protocol: as §1
# [4] = system: S. cerevisiae strain ARE (AfCyp51A-6×His, AfCprA2, AfErg6-FLAG); experiment: MIC80 susceptibility, strain ARE; assay type: cell-based, Saccharomyces cerevisiae
# Protocol: as §1
# [5] = system: S. cerevisiae strain BRE (Y2747); experiment: Sterol analysis of recombinant yeast strain (GC-MS); assay type: cell-based, Saccharomyces cerevisiae; conditions: VCZ at concentration slowing growth rate by ~50%, ~1% without VCZ
# Protocol: (§2) Yeast strains grown overnight in SD medium pH 6.8 were inoculated in 20 mL fresh medium and grown to OD600nm = 0.5. The cultures were then treated with VCZ at a concentration that reduced the rate of cell growth by ~50%. Untreated control cultures were harvested by centrifugation after 8 h at a cell density of ~2.5, and VCZ-treated cultures were harvested after ~16 h at a similar cell density. The harvested cells were prepared for sterol extraction and analysis using the method described by Müller et al..
# [6] = system: S. cerevisiae strain ARE (Y2746); experiment: as above; assay type: cell-based, Saccharomyces cerevisiae; conditions: VCZ at concentration slowing growth rate by ~50%, 20% without VCZ
# Protocol: as §2
# [7] = Saccharomyces cerevisiae, 48 h, pH 6.8, Table 2, strain T289A, SD pH 6.8, 48 h, 30 °C, read-out: MIC80
SMILES,MIC80 [1],λpeak (type II difference spectrum) [2],λtrough (type II difference spectrum) [2],ΔAmax (type II binding) [2],Hill Number [2],Kd [2],greater susceptibility (MIC80) of strain T289A compared with strain ARE [3],"MIC80 [3, 7]","MIC80 ([3]; Table 2, strain T289A, SD pH 6.8, 48 h, 30 °C)","MIC80 ([4]; Saccharomyces cerevisiae, Table 2, strain ARE, SD pH 6.8, 48 h, 30 °C, ± SD, read-out: MIC80)",MIC80 of strain ARE relative to strain ADΔΔ ([4]; higher),eburicol content in the presence of VCZ [5],eburicol content in the presence of VCZ [6],"MIC80 ([3]; Saccharomyces cerevisiae, Table 3, strain ARE T289A, read-out: MIC80)",MIC80 of strain T289A relative to strain ADΔΔ ([3]; higher),"MIC80 ([4]; Saccharomyces cerevisiae, 48 h, pH 6.8)","MIC80 ([4]; Saccharomyces cerevisiae, Table 3, strain ARE, ± SD, read-out: MIC80)","MIC80 ([4]; Table 2, strain ARE, SD pH 6.8, 48 h, 30 °C, ± SD)"
"C[C@@H](c1ncncc1F)[C@](O)(Cn1cncn1)c1ccc(F)cc1F [VCZ, voriconazole]",0.07 ± 0.01 µM,427 nm,410 nm,0.03,1.12,0.8 ± 0.31 µM,2.5 fold,< 0.12 µM,0.11 ± 0.00 µM,0.27 ± 0.03 µM,4- to 5 fold,~ 20 % of total sterol,25 % of total sterol,–,–,–,–,–
"OC(Cn1cncn1)(Cn1cncn1)c1ccc(F)cc1F [FLC, fluconazole]",2.9 ± 0.4 µM,425 nm,407 nm,0.09,1.75,1.43 ± 0.07 µM,11 fold,21.3 ± 2.7 µM,–,–,–,–,–,12 ± 2 µM,7 fold,227 ± 19 µM,151 ± 66 µM,227 ± 18 µM and 227 ± 18.5 µM
